Source: patent US8039639B2, “Kinase inhibitors and methods of use thereof” (Array BioPharma Inc., priority 2006, dated 2011)
Where two headings read alike, the source gives them in different places.

Legend:
[1] = Pharmacokinetics in monkey; type: in vivo, male Cynomologus monkeys
Description: (§1) Non-compartmental (model independent) methods were used to analyze the plasma concentration time-curves derived from all species as described below. Clearance (Cl), calculated percent extraction ratios (ER %), volume of distribution (Vz), time to […] (t1/2) and exposure (AUC, area under the curve) values are provided below for mouse, rat, and monkey, respectively.
3. […] Blood was sampled at the same time points as listed for the Mouse PK study.

[2] = target: T1, BCR-Abl (Homo sapiens, UniProt P00519); assay: K562 immunoblot for p-Abl, pSTAT5, pCrkL; type: cell-based; settings: K562 cells, 2 hours, 37-5000 nM
T1 construct: BCR (N-terminal part, natural fusion partner of the Philadelphia-chromosome chimera); endogenous in cells; host or cells: K562; the other entry of the earlier key: BCR (P11274, Breakpoint cluster region protein)

[3] = target: Abl (T315I) (Homo sapiens, UniProt P00519, T315I); assay: protein kinase IC50 determination (ATP at Km); type: biochemical; settings: ATP concentration at Km
[4] = test system: K562 cells; assay: K562 subcutaneous tumor model (BCR-Abl-driven tumors); type: in vivo, Female Scid-beige mice; settings: for % Regression / Complete responses: K562 tumors, PO ×7, dosed as Compound 74; for Complete responses: n=8
Protocol: Test compounds were administered by oral gavage at the indicated doses and schedules when tumors reached 200±50 mm^3 in size. […] Tumor size and body weight were monitored throughout the study.

[5] = target: CYP1A2 (Homo sapiens, UniProt P05177); assay: CYP inhibition assay (fluorescent probe, recombinant protein); type: in vitro ADME; settings: n=1
CYP1A2, sequence (P05177 whole entry, species assumed): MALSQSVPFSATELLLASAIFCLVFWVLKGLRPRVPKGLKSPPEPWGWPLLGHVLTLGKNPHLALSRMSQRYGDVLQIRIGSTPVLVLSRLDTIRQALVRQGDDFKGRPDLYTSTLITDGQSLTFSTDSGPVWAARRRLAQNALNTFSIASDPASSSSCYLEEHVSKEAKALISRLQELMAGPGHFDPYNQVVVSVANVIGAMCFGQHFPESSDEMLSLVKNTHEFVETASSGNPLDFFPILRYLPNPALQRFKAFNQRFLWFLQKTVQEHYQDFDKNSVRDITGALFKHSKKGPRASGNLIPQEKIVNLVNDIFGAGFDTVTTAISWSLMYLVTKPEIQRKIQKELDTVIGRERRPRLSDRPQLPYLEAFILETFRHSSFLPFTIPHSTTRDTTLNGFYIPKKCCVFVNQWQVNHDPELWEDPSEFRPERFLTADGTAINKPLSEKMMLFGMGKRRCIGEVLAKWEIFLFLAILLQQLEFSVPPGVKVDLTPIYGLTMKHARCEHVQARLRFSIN

[6] = Pharmacokinetics in mouse; type: in vivo, female Balb/c mice
Protocol: as §1
1. […] Blood samples were obtained at 15 and 30 minutes, and 1, 2, 4, 8 and 24 hours after PO dosing, and at 15 and 30 minutes, and 1, 2, 4, and 8 hours for IV administration.

[7] = target: T2, CYP3A4 (Homo sapiens, UniProt P08684); assay: CYP inhibition assay (LC/MS, pooled human liver microsomes); type: in vitro ADME; settings: n=1
T2 construct: using pooled human liver microsomes (n=1); from tissue; host or cells: pooled human liver microsomes
T2 sequence (P08684 whole entry): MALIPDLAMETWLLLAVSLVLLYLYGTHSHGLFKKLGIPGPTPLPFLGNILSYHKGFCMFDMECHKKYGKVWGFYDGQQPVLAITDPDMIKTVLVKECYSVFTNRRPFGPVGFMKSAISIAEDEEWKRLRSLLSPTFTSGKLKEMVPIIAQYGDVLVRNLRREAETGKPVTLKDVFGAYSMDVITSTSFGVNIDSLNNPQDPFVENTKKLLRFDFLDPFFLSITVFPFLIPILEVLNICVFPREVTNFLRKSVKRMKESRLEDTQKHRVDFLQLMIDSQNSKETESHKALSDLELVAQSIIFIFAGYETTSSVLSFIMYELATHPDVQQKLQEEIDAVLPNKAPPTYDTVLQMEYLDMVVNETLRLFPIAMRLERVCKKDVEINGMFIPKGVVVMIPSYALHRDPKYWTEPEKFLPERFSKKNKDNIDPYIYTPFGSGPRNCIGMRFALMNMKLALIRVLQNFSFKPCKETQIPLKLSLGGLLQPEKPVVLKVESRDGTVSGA

[8] = test system: Collagen Induced Arthritis (CIA); assay: Rat model of collagen induced arthritis (CIA); type: in vivo, Female Lewis rats; settings: BID×7, dosed as prodrug Compound 74; for ED50: PO
Protocol: Female Lewis rats (200 g); n=8 per treatment group were injected with type II collagen/Freund's incomplete adjuvant (300 μL injection of 0.6 mg collagen, dorsal surface Day 0 and Day 6). […] ENBREL® served as a positive control. Compounds were administered on days 11-18. Ankle diameter was measured at day 11 and every day thereafter (FIG. 70). At study end paw weight and microscopic histology were determined. Both hind paws and knees were removed, hind paws weighed and then placed, with knees, in formalin. Following 1-2 days in fixative and 4-5 days in decalcifier, ankle joints and knees were processed, embedded, sectioned and stained with toluidine blue. Ankles and knees were given scores of 0-5 for inflammation, pannus formation and bone resorption.

[9] = test system: sodium channel (site 2); assay: Off-target ligand displacement assay, panel of 28 receptors, ion channels and transporters; type: binding; settings: at 10 μM; only hit among 28 entities screened
[10] = test system: bFGF-induced angiogenesis; assay: bFGF matrigel plug angiogenesis in vivo; parameters: species or system Female CD-1 mice; settings: PO, BID×7, dosed as prodrug Compound 74
Protocol: Female CD-1 mice (19-22 g), n=4 per treatment group, were implanted subcutaneously with 500 μL growth factor reduced matrigel containing 1500 ng/mL bFGF or 0 ng/mL bFGF as a negative control. Test compounds were administered by oral gavage at the indicated doses and schedules. […] Sutent is an inhibitor of KDRand served as a positive drug control in this study. Animals were euthanized on day 7. Matrigel was harvested, weighed and homogenized in phosphate buffered saline, pH 7.4. Samples were centrifuged and the resulting lysate analyzed for hemoglobin concentration by colorimetric reaction.

[11] = Solubility determination; type: physicochemical
[12] = test system: K562; assay: K562 cell viability (CellTiter Blue); type: cell-based; settings: Homo sapiens; K562, 72 hours
Description: Cell viability was subsequently measured using CellTiter Blue (Promega) to determine IC50 values for each compound.

[13] = target: T3, CYP2C9 (Homo sapiens, UniProt P11712); assay: CYP inhibition assay (LC/MS, pooled human liver microsomes); type: in vitro ADME; settings: n=1
T3 construct: using pooled human liver microsomes (n=1); from tissue; host or cells: pooled human liver microsomes
T3 sequence (P11712 whole entry): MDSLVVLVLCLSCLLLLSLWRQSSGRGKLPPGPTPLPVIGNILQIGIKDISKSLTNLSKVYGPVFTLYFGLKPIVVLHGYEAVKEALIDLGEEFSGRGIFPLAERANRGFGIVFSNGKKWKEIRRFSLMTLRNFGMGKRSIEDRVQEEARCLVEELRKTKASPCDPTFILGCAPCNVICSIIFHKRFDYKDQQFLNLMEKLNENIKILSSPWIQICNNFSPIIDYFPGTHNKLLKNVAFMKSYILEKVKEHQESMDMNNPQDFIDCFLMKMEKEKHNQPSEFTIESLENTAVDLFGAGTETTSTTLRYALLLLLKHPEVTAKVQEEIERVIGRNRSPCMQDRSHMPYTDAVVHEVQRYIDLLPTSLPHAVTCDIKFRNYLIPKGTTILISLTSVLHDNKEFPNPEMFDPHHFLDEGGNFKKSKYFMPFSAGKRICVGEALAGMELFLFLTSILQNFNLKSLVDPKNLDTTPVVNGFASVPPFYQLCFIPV

[14] = Pharmacokinetics in rat; type: in vivo, male Sprague-Dawley rats
Description: as §1
2. […] Blood was sampled at the same time points as listed for the Mouse PK study.

[15] = target: Hck (Homo sapiens, UniProt P08631); assay: protein kinase IC50 determination (ATP at Km); type: biochemical; settings: ATP concentration at Km
Hck, sequence (P08631 whole entry, species assumed): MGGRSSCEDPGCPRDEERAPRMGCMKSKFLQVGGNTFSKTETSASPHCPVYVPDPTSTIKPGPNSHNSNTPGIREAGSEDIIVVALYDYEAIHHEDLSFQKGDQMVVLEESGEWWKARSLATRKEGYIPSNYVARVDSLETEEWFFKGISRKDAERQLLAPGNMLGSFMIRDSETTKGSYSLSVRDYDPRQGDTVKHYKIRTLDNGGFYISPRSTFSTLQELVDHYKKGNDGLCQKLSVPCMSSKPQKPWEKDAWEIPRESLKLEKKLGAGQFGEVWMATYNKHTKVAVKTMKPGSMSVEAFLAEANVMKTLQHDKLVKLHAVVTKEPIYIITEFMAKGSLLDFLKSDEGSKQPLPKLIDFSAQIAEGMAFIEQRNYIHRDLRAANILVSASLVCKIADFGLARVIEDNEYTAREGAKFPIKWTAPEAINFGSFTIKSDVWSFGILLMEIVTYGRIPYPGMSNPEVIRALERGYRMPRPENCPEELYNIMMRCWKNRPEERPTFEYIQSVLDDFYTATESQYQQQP

[16] = target: hERG (Homo sapiens, UniProt Q12809); assay: hERG patch clamp; type: cell-based; settings: at 10 μM
hERG, sequence (Q12809 whole entry): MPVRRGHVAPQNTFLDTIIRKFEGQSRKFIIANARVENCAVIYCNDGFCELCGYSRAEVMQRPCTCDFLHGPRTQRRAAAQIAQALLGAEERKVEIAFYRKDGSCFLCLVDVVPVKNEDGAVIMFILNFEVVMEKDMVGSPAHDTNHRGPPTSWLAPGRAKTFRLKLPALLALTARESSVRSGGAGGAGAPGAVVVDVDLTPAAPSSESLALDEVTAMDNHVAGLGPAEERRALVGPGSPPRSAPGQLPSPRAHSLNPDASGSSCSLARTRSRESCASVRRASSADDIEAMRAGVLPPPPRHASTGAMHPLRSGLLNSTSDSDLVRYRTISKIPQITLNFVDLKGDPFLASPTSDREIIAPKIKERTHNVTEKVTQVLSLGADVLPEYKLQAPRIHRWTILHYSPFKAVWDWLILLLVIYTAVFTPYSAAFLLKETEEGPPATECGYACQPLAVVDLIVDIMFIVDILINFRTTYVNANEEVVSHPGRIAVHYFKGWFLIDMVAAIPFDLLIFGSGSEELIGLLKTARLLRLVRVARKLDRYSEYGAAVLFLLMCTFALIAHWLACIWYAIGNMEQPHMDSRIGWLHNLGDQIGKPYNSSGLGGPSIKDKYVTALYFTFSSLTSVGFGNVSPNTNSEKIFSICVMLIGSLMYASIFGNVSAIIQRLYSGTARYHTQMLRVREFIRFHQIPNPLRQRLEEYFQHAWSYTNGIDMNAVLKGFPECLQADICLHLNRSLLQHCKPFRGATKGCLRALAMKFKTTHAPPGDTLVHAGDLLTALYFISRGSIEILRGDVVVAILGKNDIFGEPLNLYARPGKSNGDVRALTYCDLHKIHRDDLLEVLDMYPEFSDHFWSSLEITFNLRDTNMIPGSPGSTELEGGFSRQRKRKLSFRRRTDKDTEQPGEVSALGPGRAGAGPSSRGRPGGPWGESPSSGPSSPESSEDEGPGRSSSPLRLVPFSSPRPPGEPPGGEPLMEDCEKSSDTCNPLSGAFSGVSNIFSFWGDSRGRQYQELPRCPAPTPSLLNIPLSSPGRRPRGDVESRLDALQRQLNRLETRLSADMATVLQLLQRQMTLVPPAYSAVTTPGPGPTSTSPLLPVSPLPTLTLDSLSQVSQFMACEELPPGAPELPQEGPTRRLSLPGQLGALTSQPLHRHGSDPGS
Protocol: hERG assay was performed using a standard patch clamp protocol. AMES assay (bacterial reverse mutation assay) was performed according to protocol. […] In vitro and in vivo micronucleus assays were performed according to protocol.

[17] = target: T4, VEGFR2 (Homo sapiens, UniProt P35968); assay: VEGFR2 autophosphorylation (Tyr1175) in VEGF-stimulated HUVECs; type: cell-based; settings: 20 ng/mL VEGF for 5 minutes, read-out: IC50, VEGFR2 autophosphorylation at Tyrosine residue 1175
T4 construct: endogenous in cells; host or cells: HUVEC
T4 sequence (P35968 20-1356): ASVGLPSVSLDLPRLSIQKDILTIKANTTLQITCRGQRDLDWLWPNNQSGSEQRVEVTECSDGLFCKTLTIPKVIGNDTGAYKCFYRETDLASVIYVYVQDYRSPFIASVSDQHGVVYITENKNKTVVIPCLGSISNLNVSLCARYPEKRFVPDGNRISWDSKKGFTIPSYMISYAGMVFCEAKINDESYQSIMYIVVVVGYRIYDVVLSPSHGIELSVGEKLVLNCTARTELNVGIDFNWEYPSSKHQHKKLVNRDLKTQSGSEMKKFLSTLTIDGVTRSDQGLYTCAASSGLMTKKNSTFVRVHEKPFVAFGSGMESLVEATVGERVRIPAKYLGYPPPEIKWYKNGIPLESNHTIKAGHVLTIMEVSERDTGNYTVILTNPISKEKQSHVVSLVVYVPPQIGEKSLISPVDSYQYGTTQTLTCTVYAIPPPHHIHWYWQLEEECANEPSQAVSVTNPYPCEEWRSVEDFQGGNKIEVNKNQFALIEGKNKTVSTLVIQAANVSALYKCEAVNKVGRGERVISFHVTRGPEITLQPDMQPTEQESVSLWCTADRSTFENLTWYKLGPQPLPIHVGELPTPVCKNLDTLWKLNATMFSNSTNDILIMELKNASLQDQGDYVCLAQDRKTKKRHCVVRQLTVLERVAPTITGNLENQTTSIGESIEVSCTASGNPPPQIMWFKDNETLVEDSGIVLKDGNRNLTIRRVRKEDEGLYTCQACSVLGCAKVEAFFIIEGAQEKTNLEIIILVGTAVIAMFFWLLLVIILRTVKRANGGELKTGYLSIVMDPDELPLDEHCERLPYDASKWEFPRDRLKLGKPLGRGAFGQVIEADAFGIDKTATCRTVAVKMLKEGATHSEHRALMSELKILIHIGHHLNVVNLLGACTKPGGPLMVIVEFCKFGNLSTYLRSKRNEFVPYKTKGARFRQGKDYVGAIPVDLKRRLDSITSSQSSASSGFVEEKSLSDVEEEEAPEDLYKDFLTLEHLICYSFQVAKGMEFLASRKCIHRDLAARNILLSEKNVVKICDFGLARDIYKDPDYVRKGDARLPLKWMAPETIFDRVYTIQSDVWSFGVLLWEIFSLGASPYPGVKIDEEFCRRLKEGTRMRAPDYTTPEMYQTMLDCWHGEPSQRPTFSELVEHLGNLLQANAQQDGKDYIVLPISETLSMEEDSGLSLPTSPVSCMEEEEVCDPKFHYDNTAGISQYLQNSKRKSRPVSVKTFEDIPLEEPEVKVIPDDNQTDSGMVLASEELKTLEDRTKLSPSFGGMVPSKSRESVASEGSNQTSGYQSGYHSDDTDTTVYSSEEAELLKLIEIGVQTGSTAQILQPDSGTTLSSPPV
Protocol: Lysates of the various treatments were prepared and immunoblotted with antibodies specific for VEGFR2 phosphorylated at Tyr1175. […] Phospho-VEGFR2 signal was normalized to GAPDH as a loading control.

[18] = female, Balb/c, plasma, IV: 1 mg/kg
[19] = male, Sprague-Dawley, plasma, IV: 1 mg/kg

Cc1ccc(-n2nc(C(C)(C)C)cc2NC(=O)NCc2cc(F)ccc2Oc2ccc3c(cnn3CCO)c2)cc1 [Compound 72, 1-(3-tert-butyl-1-p-tolyl-1H-pyrazol-5-yl)-3-(5-fluoro-2-(1-(2-hydroxyethyl)-1H-indazol-5-yloxy)benzyl)urea]
AUC ([1]; IV: 1 mg/kg): AUC = 4.1 μg-hr/kg
ER ([1]; IV: 1 mg/kg): ER = 20%
AUC ([1]; Oral: 10 mg/kg): AUC = 7.6 μg-hr/kg
F ([1]; Oral: 10 mg/kg): F = 38%
clearance ([1]; male, plasma, IV: 1 mg/kg): 8.8 mL/min/kg
half-life ([1]; male, plasma, IV: 1 mg/kg): 4.6 h
Vd ([1]; male, plasma, IV: 1 mg/kg, read-out: Vz): 3.2 L/kg
Cmax ([1]; male, plasma, Oral: 10 mg/kg): 260 ng/mL
inhibition of autophosphorylation of BCR-Abl and phosphorylation of its substrates STAT5 and CrkL (immunoblot) [2]: capable of inhibiting
IC50 [3]: 68 nM
body weight loss ([4]; K562 tumor-bearing Scid-beige mice, throughout the course of treatment): less than 10%
% Regression ([4]; 30 mg/kg BID): Stasis
Complete responses ([4]; 30 mg/kg BID): 0/8
% Regression ([4]; 100 mg/kg BID): 93%
Complete responses ([4]; 100 mg/kg BID): 5/8
% Regression ([4]; 100 mg/kg QD): Stasis
Complete responses ([4]; 100 mg/kg QD): 0/8
IC50 [5]: 25000 nM
AUC ([6]; IV: 1 mg/kg): AUC = 6.6 μg-hr/kg
ER ([6]; IV: 1 mg/kg): ER = 2.8%
AUC ([6]; Oral: 10 mg/kg): AUC = 10.5 μg-hr/kg
F ([6]; Oral: 10 mg/kg): F = 16%
clearance [6, 18]: 2.6 mL/min/kg
half-life [6, 18]: 3.9 h
Vd ([6]; female, Balb/c, plasma, IV: 1 mg/kg, read-out: Vz): 0.085 L/kg
Cmax ([6]; female, Balb/c, plasma, Oral: 10 mg/kg): 1800 ng/mL
IC50 ([7]; substrate Midazolam): ~8000 nM
IC50 ([7]; substrate Testosterone): ~10000 nM
disease course by the end of the study ([8]; rat CIA, 10 mg/kg PO): induced disease regression
parameters associated with the disease model ([8]; rat CIA, 0.3, 1, 3 or 10 mg/kg PO): dose-dependently improved all of the parameters
ED50 ([8]; rat CIA, read-out: apparent ED50, ankle diameter): 1.5 mg/kg
ED50 ([8]; rat CIA, read-out: apparent ED50, histopathology): 3 mg/kg
ligand displacement, sodium channel (site 2) [9]: > 50%
inhibition of bFGF-induced angiogenesis (matrigel hemoglobin) ([10]; mice, 100 mg/kg active drug, p<0.05): 72%
bFGF-induced angiogenesis, dose response ([10]; mice, 10, 30 or 100 mg/kg active drug): inhibited bFGF-induced angiogenesis in a dose-dependent manner
solubility ([11]; aqueous buffer, pH 3.0): < 5 µg/mL
solubility ([11]; pH 7.4, aqueous buffer): < 5 µg/mL
IC50 [12]: 62 nM
IC50 [13]: 5000 nM
AUC ([14]; IV: 1 mg/kg): AUC = 4.7 μg-hr/kg
ER ([14]; IV: 1 mg/kg): ER = 4.6%
AUC ([14]; Oral: 30 mg/kg): AUC = 35 μg-hr/kg
F ([14]; Oral: 30 mg/kg): F = 15%
clearance [14, 19]: 3.2 mL/min/kg
half-life [14, 19]: 3.9 h
Vd ([14]; male, Sprague-Dawley, plasma, IV: 1 mg/kg, read-out: Vz): 0.048 L/kg
Cmax ([14]; male, Sprague-Dawley, plasma, Oral: 30 mg/kg): 4500 ng/mL
IC50 [15]: 26 nM
hERG Patch Clamp Inhibition [16]: 64% Inhibition at 10 μM
IC50 [17]: 48 nM
